From ChEMBL document CHEMBL1140676, “Evaluation of broad spectrum protein kinase inhibitors to probe the architecture of the malarial cyclin dependent protein kinase Pfmrk” (Bioorg Med Chem Lett, 2007) come the findings set out here.

Molecules are shown by their SMILES.

One may read the IC50 as the concentration that inhibits the measured activity by half. Read a low IC50 as greater potency in that assay.

One assay has as its target T1, Protein kinase Pfmrk (Plasmodium falciparum, UniProt P90584).
T1 sequence (P90584 whole entry): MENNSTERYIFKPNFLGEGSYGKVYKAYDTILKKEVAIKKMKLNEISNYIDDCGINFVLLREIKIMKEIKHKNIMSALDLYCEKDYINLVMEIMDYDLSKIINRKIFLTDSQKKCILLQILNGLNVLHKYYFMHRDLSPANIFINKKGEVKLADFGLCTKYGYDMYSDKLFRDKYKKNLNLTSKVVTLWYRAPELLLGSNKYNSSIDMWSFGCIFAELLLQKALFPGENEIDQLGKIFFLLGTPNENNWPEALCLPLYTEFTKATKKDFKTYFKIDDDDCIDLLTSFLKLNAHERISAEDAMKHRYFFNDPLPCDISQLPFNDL
Briefly: Inhibition of Plasmodium falciparum Pfmrk.

Assay [1] relates to Plasmodium falciparum. As to the kind of experiment: Antimalarial activity against drug-resistant Plasmodium falciparum D6. In kind it is functional, organism-based.
Assay [2] relates to Plasmodium falciparum. As to the kind of experiment: Antimalarial activity against drug-resistant Plasmodium falciparum W2. The class given is functional, organism-based.

As for `NCCCCNS(=O)(=O)c1ccc2ccccc2c1`, the IC50 on Protein kinase Pfmrk is > 500 µM.

Consider `C[C@H]1CNCCN1S(=O)(=O)c1cccc2cnccc12`, for which the IC50 in the assay on Plasmodium falciparum [1] is > 69 µM; against Protein kinase Pfmrk, > 500 µM; in the assay with Plasmodium falciparum [2] it was 5.4 µM.

For `O=S(=O)(c1cccc2c(Cl)cccc12)N1CCCNCC1`, the IC50 at Protein kinase Pfmrk is > 500 µM.

For `O=S(=O)(c1cccc2cnccc12)N1CCNCC1`, the IC50 was > 36 µM in the assay on Plasmodium falciparum [1], > 500 µM at Protein kinase Pfmrk and 4.3 µM in the assay on Plasmodium falciparum [2].

As for `O=S(=O)(NCCNC/C=C/c1ccc(Br)cc1)c1cccc2cnccc12`, the IC50 is 4.8 µM in the assay on Plasmodium falciparum [1], > 500 µM on Protein kinase Pfmrk and 2.1 µM with Plasmodium falciparum [2].

Consider `N=C(N)NCCNS(=O)(=O)c1cccc2cnccc12`, for which, at Protein kinase Pfmrk, the IC50 is > 500 µM.

With `NCCCCCCNS(=O)(=O)c1cccc2c(Cl)cccc12`, the IC50 was 8.8 µM in the assay with Plasmodium falciparum [1], > 500 µM on Protein kinase Pfmrk and 15 µM in the assay with Plasmodium falciparum [2].

On to `NCCCCNS(=O)(=O)c1cccc2c(Cl)cccc12`, for which the IC50 against Protein kinase Pfmrk is > 500 µM.

For `O=S(=O)(c1cccc2c(I)cccc12)N1CCCNCC1`, on Protein kinase Pfmrk, the IC50 was > 500 µM.

On to `CNCCNS(=O)(=O)c1cccc2cnccc12`, for which the IC50 is > 74 µM with Plasmodium falciparum [1], 70 µM on Protein kinase Pfmrk and > 37 µM with Plasmodium falciparum [2].

Turning to `NCCNS(=O)(=O)c1cccc2cnccc12`, the figures for the IC50 in the assay on Plasmodium falciparum [1], against Protein kinase Pfmrk and in the assay on Plasmodium falciparum [2] were > 72 µM, 0.7 µM and > 72 µM, respectively.

In the case of `O=S(=O)(c1cccc2cnccc12)N1CCCNCC1` [FASUDIL], the IC50 on Protein kinase Pfmrk was > 500 µM.
